Target: T1, α7 nAChR (Homo sapiens, UniProt P36544)
T1 construct: expressed in transfected cells; host or cells: Xenopus oocytes (cRNA injection)
Test: α7 nAChR positive allosteric modulator activity assay, voltage clamp in Xenopus oocytes with 100 μM ACh
Assay type: cell-based
Conditions: for activity at 10 µM: at 10 μM compound, current induced by 100 μM ACh, Xenopus oocytes expressing α7 nAChR, read-out: Max Mod (%, at 10 μM); for EC50: potentiation of current induced by 100 μM ACh, Hill equation fit
Protocol: The experimental process was as follows:
(1) Xenopus oocytes were injected with cRNA encoding α7 nAChR in order to express α7 nAChR on the cell membrane successfully;
(2) 100 μM ACh alone was added, and the α7 nAChR characteristic current caused by it was recorded as a control;
(5) The oocytes were incubated for 1 min with 10 μM compound, then 10 µM compound and 100 μM ACh were added simultaneously and the current induced by ACh was recorded at this time;
(6) The differences between the two currents in terms of peak intensity and duration were compared, with the ratio of peak intensity of the two currents representing the adjustment effect (Enhance Rate), in order to determine whether the compound had PAM activity, if the activity was good, then the subsequent test was carried out;
(7) Concentration gradient was set and the effects of compounds at different concentrations on the α7 nAChR characteristic current induced by 100 μM ACh were evaluated. Several determinations were carried out at the same concentration, and the results were presented in the form of “mean±standard deviation”;
(8) The EC50 (median maximum effect concentration) values and Max mod (the current amplitude caused by the maximal degree of adjustable endogenous agonist acetylcholine) values of the compounds and other activity data were obtained by Hill equation Inormalized=Emax/(1+(EC50/C)nH).
The amplitude of the peak current is only normalized by the amplitude produced by 100 μM ACh and different concentrations of LD486. […] It can be seen from FIG. 3 that the Hill equation is used to fit the dose-response curve and calculate the kinetic parameters.

T1 sequence (P36544 23-502): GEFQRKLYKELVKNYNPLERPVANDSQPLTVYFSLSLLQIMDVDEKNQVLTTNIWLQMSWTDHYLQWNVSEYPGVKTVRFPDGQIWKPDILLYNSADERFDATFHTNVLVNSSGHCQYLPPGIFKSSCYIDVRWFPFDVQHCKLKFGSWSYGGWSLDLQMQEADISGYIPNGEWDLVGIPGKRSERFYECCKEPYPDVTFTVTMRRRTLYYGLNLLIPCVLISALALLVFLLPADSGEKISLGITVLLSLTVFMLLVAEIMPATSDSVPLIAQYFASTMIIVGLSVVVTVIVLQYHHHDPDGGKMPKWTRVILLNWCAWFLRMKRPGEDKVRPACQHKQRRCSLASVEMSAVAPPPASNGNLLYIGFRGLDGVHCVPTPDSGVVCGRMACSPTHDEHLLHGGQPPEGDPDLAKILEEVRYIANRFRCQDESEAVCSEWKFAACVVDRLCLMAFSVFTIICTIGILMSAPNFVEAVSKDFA

Compound	activity at 10 µM	EC50
COc1ccc(Sc2nc3ncn(-c4c(C)cccc4Cl)c(=O)c3s2)cc1 [LYH150909, 6-(2-Chloro-6-methylphenyl)-2-((4-methoxyphenyl)thio)thiazolo[4,5-d]pyrimidin-7(6H)-one]	110%	
Cc1cccc(Cl)c1-n1cnc2nc(Nc3ccccn3)sc2c1=O [JWX-A0828, 6-(2-Chloro-6-methylphenyl)-2-(pyridin-2-ylamino)thiazolo[4,5-d]pyrimidin-7(6H)-one]	110%	
Cc1cc(C)c(-n2cnc3nc(Nc4ccccc4)sc3c2=O)c(C)c1 [LD252, 6-Mesityl-2-(phenylamino)thiazolo[4,5-d]pyrimidin-7(6H)-one]	110%	
Cc1ccc(Nc2nc3ncn(-c4ccccc4Cl)c(=O)c3s2)cc1 [JWX-A0415, 6-(2-Chlorophenyl)-2-(p-tolylamino) thiazolo[4,5-d]pyrimidin-7(6H)-one]	680%	10 µM
Cc1cccc(Cl)c1-n1cnc2nc(NC(=O)c3ccc(F)cc3)sc2c1=O [JWX-A0617, N-(6-(2-Chloro-6-methylphenyl)-7-oxo-6,7-dihydrothiazolo[4,5-d]pyrimidin-2-yl)-4-fluorobenzamide]	150%	10 µM
Cc1nc(Nc2nc3ncn(-c4c(C)cccc4Cl)c(=O)c3s2)cc(N2CCN(C)CC2)n1 [JWX-A1022, 6-(2-Chloro-6-methylphenyl)-2-((2-methyl-6-(4-methylpiperazin-1-yl)pyrimidin-4-yl)amino)thiazolo[4,5-d]pyrimidin-7(6H)-one]	110%	
Cc1ccc(Nc2nc3ncn(-c4ccccc4C)c(=O)c3s2)cc1F [JWX-A-C1026, 6-(o-tolyl)-2-((3-fluoro-4-methylphenyl)amino)-thiazolo[4,5-d]pyrimidin-7(6H)-one]	300%	10 µM
Cc1cccc(Cl)c1-n1cnc2nc(Nc3cc(Cl)ncn3)sc2c1=O [JWX-A0912, 6-(2-Chloro-6-methylphenyl)-2-((6-chloropyrimidin-4-yl)amino)thiazolo[4,5-d]pyrimidin-7(6H)-one]	200%	10 µM
Cc1cccc(Cl)c1-n1cnc2nc(Sc3ccccc3)sc2c1=O [LYH151120, 6-(2-Chloro-6-methylphenyl)-2-(phenylthio)thiazolo[4,5-d]pyrimidin-7(6H)-one]	380%	10 µM
Cc1ccc(Nc2nc3ncn(-c4ccccc4C)c(=O)c3s2)cc1 [JWX-A0414, 6-(o-Tolyl)-2-(p-tolylamino)thiazolo[4,5-d]pyrimidin-7(6H)-one]	150%	10 µM
Cc1cc(C)cc(Nc2nc3ncn(-c4c(C)cccc4Cl)c(=O)c3s2)c1 [JWX-A-C1017, 6-(2-Chloro-6-methylphenyl)-2-((3,5-dimethylphenyl)amino)thiazolo[4,5-d]pyrimidin-7(6H)-one]		5.02 µM
Cc1cccc(Cl)c1-n1cnc2nc(Nc3ccc(Cl)nn3)sc2c1=O [JWX-A0918, 6-(2-Chloro-6-methylphenyl)-2-((6-chloropyridazin-3-yl)amino)thiazolo[4,5-d]pyrimidin-7(6H)-one]	110%	
Cc1cccc(Cl)c1-n1cnc2nc(NC(=O)c3ccc(OC(F)(F)F)cc3)sc2c1=O [JWX-A-C1205, N-(6-(2-Chloro-6-methylphenyl)-7-oxo-6,7-dihydrothiazolo[4,5-d]pyrimidin-2-yl)-4-(trifluoromethoxy)benzamide]	980%	10.8 µM
Cc1cccc(Cl)c1-n1cnc2nc(Sc3ccc(F)cc3)sc2c1=O [LYH150908, 6-(2-Chloro-6-methylphenyl)-2-((4-fluorophenyl)thio)thiazolo[4,5-d]pyrimidin-7(6H)-one]	200%	10 µM
CCCNc1nc2ncn(-c3c(C)cccc3Cl)c(=O)c2s1 [JWX-A1229, 6-(2-Chloro-6-methylphenyl)-2-(n-propylamino)thiazolo[4,5-d]pyrimidin-7(6H)-one]	110%	
Cc1cccc(CSc2nc3ncn(-c4c(C)cccc4Cl)c(=O)c3s2)c1 [LYH150324-3Me, 6-(2-Chloro-6-methylphenyl)-2-((3-methylbenzyl)thio)thiazolo[4,5-d]pyrimidin-7(6H)-one]	230%	10 µM
Cc1cccc(Cl)c1-n1cnc2nc(NCc3ccccc3)sc2c1=O [JWX-A1228, 6-(2-chloro-6-methylphenyl)-2-(Benzylamino)thiazolo[4,5-d]pyrimidin-7(6H)-one]	110%	
Cc1cc(C)c(-n2cnc3nc(Nc4ccccn4)sc3c2=O)c(C)c1 [LD286, 6-Mesityl-2-(pyridin-2-ylamino)thiazolo[4,5-d]pyrimidin-7(6H)-one]	110%	
Cc1cccc(Cl)c1-n1cnc2nc(NC(=O)c3ccccc3)sc2c1=O [JWX-A0121, N-(6-(2-Chloro-6-methylphenyl)-7-oxo-6,7-dihydrothiazolo[4,5-d]pyrimidin-2-yl)benzamide]	200%	10 µM
Cc1nc(Cl)cc(Nc2nc3nnn(-c4c(C)cccc4Cl)c(=O)c3s2)n1 [JWX-A3N, 6-((6-Chloro-2-methylpyrimidin-4-yl)amino)-3-(2-chloro-6-methylphenyl)thiazolo[4,5-d][1,2,3]triazin-4(3H)-one]	110%	
Cc1cccc(Cl)c1-n1cnc2nc(Nc3ccc(OC(F)(F)F)cc3)sc2c1=O [JWX-A-C0901, 6-(2-Chloro-6-methylphenyl)-2-((4-(trifluoromethoxy)phenyl)amino)thiazolo[4,5-d]pyrimidin-7(6H)-one]	200%	10 µM
COc1ccc(Nc2nc3ncn(-c4c(C)cccc4Cl)c(=O)c3s2)cc1 [JWX-A1030, 6-(2-Chloro-6-methylphenyl)-2-((4-methoxyphenyl)amino)thiazolo[4,5-d]pyrimidin-7(6H)-one]	200%	10 µM
Cc1cccc(Cl)c1-n1cnc2nc(SCc3ccc(F)cc3)sc2c1=O [LYH150312-4F, 6-(2-Chloro-6-methylphenyl)-2-((4-fluorobenzyl)thio)thiazolo[4,5-d]pyrimidin-7(6H)-one]	670%	2.87 µM
Cc1ccccc1CSc1nc2ncn(-c3c(C)cccc3Cl)c(=O)c2s1 [LYH150325-2Me, 6-(2-Chloro-6-methylphenyl)-2-((2-methylbenzyl)thio)thiazolo[4,5-d]pyrimidin-7(6H)-one]	370%	10 µM

Next, values leading:

activity at 10 µM	EC50	Compound
450%	7.65 µM	Cc1cccc(Cl)c1-n1cnc2nc(Nc3cccc(F)c3)sc2c1=O [JWX-A1214, 6-(2-Chloro-6-methylphenyl)-2-((3-fluorophenyl)amino)thiazolo[4,5-d]pyrimidin-7(6H)-one]
	8.39 µM	Cc1cccc(Nc2nc3ncn(-c4c(C)cccc4Cl)c(=O)c3s2)c1 [JWX-A1211, 6-(2-Chloro-6-methylphenyl)-2-(m-tolylamino)thiazolo[4,5-d]pyrimidin-7(6H)-one]
150%	10 µM	COc1cccc(Nc2nc3ncn(-c4c(C)cccc4Cl)c(=O)c3s2)c1 [JWX-A1106, 6-(2-chloro-6-methylphenyl)-2-((3-methoxyphenyl)amino)thiazolo[4,5-d]pyrimidin-7(6H)-one]
200%	10 µM	Cc1cccc(Cl)c1-n1cnc2nc(Nc3cccc(Br)c3)sc2c1=O [JWX-A1113, 6-(2-chloro-6-methylphenyl)-2-((3-Bromophenyl)amino)-thiazolo[4,5-d]pyrimidin-7(6H)-one]
150%	10 µM	Cc1cccc(Cl)c1-n1cnc2nc(Nc3ccc(Br)cc3)sc2c1=O [JWX-A1105, 6-(2-chloro-6-methylphenyl)-2-((4-Bromophenyl)amino)-thiazolo[4,5-d]pyrimidin-7(6H)-one]
150%	10 µM	Cc1cccc(Cl)c1-n1cnc2nc(Nc3cccc(OC(F)(F)F)c3)sc2c1=O [JWX-A-C0907, 6-(2-Chloro-6-methylphenyl)-2-((3-(trifluoromethoxy)phenyl)amino)thiazolo[4,5-d]pyrimidin-7(6H)-one]
500%	10 µM	Cc1cccc(Cl)c1-n1cnc2nc(Nc3ccc(F)c(Cl)c3)sc2c1=O [JWX-A-C0104, 6-(2-chloro-6-methylphenyl)-2-((3-chloro-4-fluorophenyl)amino)thiazolo[4,5-d]pyrimidin-7(6H)-one]
300%	10 µM	Cc1cccc(Cl)c1-n1cnc2nc(Nc3ccc(F)c(F)c3)sc2c1=O [JWX-A-C0915, 6-(2-Chloro-6-methylphenyl)-2-((3,4-difluorophenyl)amino)thiazolo[4,5-d]pyrimidin-7(6H)-one]
200%	10 µM	Cc1cccc(Cl)c1-n1cnc2nc(Nc3ccccc3F)sc2c1=O [JWX-A0611, 6-(2-Chloro-6-methylphenyl)-2-((2-fluorophenyl)amino)thiazolo[4,5-d]pyrimidin-7(6H)-one]
650%	6.99 µM	Cc1ccc(Nc2nc3ncn(-c4c(C)cccc4Cl)c(=O)c3s2)cc1C [JWX-A0315, 6-(2-Chloro-6-methylphenyl)-2-((3,4-dimethylphenyl)amino)thiazolo[4,5-d]pyrimidin-7(6H)-one]

From patent publication US10450326B2, “Thiazolopyrimidinone compounds and preparation methods and use thereof” (PEKING UNIVERSITY, priority 2015, dated 2019)
